The LD50 is the dose at which mortality reaches 50%. Low readings indicate greater toxicity, high ones lower toxicity.

The structures appear in SMILES notation.

The first data set concerns isolated guinea-pig heart. Nature of the data set: Relative coronary blood-flow change in isolated guinea-pig heart (Langendorff). The note with it: 10 μg (first figure where two are given). On the procedure: (4) Relative coronary blood-flow change in an isolated guinea-pig heart.
The tests were carried out according to the method of Langendorff (Pflugers Archiv. 61 (1895), page 219).
In Table 5, the change in coronary blood flow after administration of various quantities of the test substance is compared with that after administration of the known compounds heptaminol and Aescin sodium salt.
On to `CCCCCC(C)NCc1c(Cl)cccc1Cl` (stereo not drawn) [compound 10], for which the “Relative change in coronary blood flow” value is recorded as “+33”.
Same read-out and setting: with `CCCCCC(C)NCc1c(C)cc(C(C)(C)C)cc1C` (stereo not drawn) [compound 5] the entry was “+118”.
The same measure, in the same setting: the result for `CCOCCCNCc1c(C)cc(C)cc1C` [compound 21] reads “+22”; that for `CCCCCC(C)NCc1cc(C(C)(C)C)ccc1C` (stereo not drawn) [compound 6], “+129”.

The data set is the same for the next values; noted with them: 30 μg.
Consider `CCCCCCNCc1c(C)cc(C)cc1C` [compound 15], for which the “Relative change in coronary blood flow, second figure after slash” value was -21.

The same data set, now with this note: 30 μg (first figure where two are given).
In the case of `CCCCCCNCc1c(C)cc(C)cc1C` [compound 15], the “Relative change in coronary blood flow” value was “+68”.
On the same count and under the same terms, the result for `CCCCCC(C)NCc1c(C)cc(C(C)(C)C)cc1C` (stereo not drawn) [compound 5] reads “+280”; that for `CCCCCCCCNCc1c(C)cc(C)cc1C` [compound 17], “+138”; that for `CCOCCCNCc1c(C)cc(C)cc1C` [compound 21], “+23”.
Take `CCCCCC(C)NCc1cc(C(C)(C)C)ccc1C` (stereo not drawn) [compound 6]: the “Relative change in coronary blood flow” value is on record as “+187”.

The data set is the same for the next values; noted with them: 100 μg.
On to `CCCCCCNCc1c(C)cc(C)cc1C` [compound 15], for which the “Relative change in coronary blood flow, second figure after slash” value is recorded as -17.

Staying with this data set, now noted: 100 μg (first figure where two are given).
`CCCCCCNCc1c(C)cc(C)cc1C` [compound 15]: the “Relative change in coronary blood flow” value is reported as “+85”.

System in a further data set: not listed separately
Nature of the data set: Toxicity in the mouse (Litchfield and Wilcoxon). The data set is classed as in vivo. The conditions noted are these: mouse, in vivo, ip. On the procedure: (6) Toxicity in the mouse
Toxicity was determined according to Litchfield and Wilcoxon (J. Pharmacol. exp. Ther. 97 (1949), page 399) in the mouse. In comparison, the values with the known substance aescin sodium salt were determined. Comparative tests with 0.1% solution, of venous and optical compatibility on the rabbit yielded similar results.
Molecule `CCCCCC(C)NCc1cccc(Br)c1` (stereo not drawn) [compound 11] registered a median lethal dose (LD50) of 100 to 250 mg/kg.
On the same count and under the same terms, the result for `CCCCCCCCCNCc1c(C)cc(C)cc1C` [compound 18] reads 50 to 100 mg/kg; that for `CCCC(C)NCc1c(C)cc(C)cc1C` (stereo not drawn) [compound 24], 50 to 100 mg/kg.
On the same count and under the same terms, the result for `CCCCCCNCc1c(C)cc(C)cc1C` [compound 15] reads 50 to 100 mg/kg; that for `Cc1cc(C)c(CNCCCOC(C)C)c(C)c1` [compound 23], 100 to 250 mg/kg.
The molecule `CCCCCCCCNCc1c(C)cc(C)cc1C` [compound 17] showed an LD50 of 25 to 50 mg/kg.
For `CCCCCC(C)NCc1ccc([N+](=O)[O-])cc1` (stereo not drawn) [compound 13], the LD50 lay in the range of 100 to 250 mg/kg.
Still for that read-out and setting: with `CCCCCC(C)NCc1ccccc1Cl` (stereo not drawn) [compound 9] the figure was 100 to 250 mg/kg; with `CCCCCNCc1c(C)cc(C)cc1C` [compound 14], 50 to 100 mg/kg.
On to `CCOCCCNCc1c(C)cc(C)cc1C` [compound 21], for which the LD50 was 50 to 100 mg/kg.

In the next data set the test system is carrageenin oedema in the rat paw. Nature of the data set: Suppression of carrageenin oedema in the rat paw (Siegmund). The data set is classed as in vivo. The note with it: 63 mg/kg p.o.; 3 h p.a. On the procedure:
(7) Suppression of carrageenin oedema in the rat paw
The inflammation-reducing and anti-oedematous effects on carrageenin and serotonin oedemas in the rat paw were studied according to Siegmund et al (Proc. Soc. exp. Biol. Med. 95 (1957), page 729). The values are given as percentages, based on the values obtained in control tests using a dummy procedure. In this way, the antiphlogistic activity of the substances according to the invention was tested.
As for `CCCCCC(C)NCc1ccc([N+](=O)[O-])cc1` (stereo not drawn) [compound 13], the “Suppression of carrageenin oedema in the paw (antiphlogistic activity)” value amounted to 17%.

The same data set, now with this note: 100 mg/kg p.o.; 3 h p.a.
Regarding `CCCCCC(C)NCc1ccc([N+](=O)[O-])cc1` (stereo not drawn) [compound 13], the “Suppression of carrageenin oedema in the paw (antiphlogistic activity)” value worked out at 59%.

These data come from patent publication US4312861A, “Pharmaceutical compositions containing N-alkyl-N-(nuclearly-substituted) benzylamines having vasotonia-regulating activity” (Hoechst Aktiengesellschaft, priority 1974, dated 1982).
